In general, IC50 refers to the concentration that gives 50% inhibition. As a reminder, the inhibition is the relative decrease from the control value, in per cent. Low readings indicate little suppression, high ones strong suppression.

This is an account of results in ChEMBL document CHEMBL1140811, “Inhibition of dipeptidyl peptidase-IV (DPP-IV) by atorvastatin” (Bioorg Med Chem Lett, 2008).

In experiment [1] the target is T1, Dipeptidyl peptidase 4 (Homo sapiens, UniProt P27487). Description: Inhibition of DPP4.
Target sequence in this assay (P27487 whole entry): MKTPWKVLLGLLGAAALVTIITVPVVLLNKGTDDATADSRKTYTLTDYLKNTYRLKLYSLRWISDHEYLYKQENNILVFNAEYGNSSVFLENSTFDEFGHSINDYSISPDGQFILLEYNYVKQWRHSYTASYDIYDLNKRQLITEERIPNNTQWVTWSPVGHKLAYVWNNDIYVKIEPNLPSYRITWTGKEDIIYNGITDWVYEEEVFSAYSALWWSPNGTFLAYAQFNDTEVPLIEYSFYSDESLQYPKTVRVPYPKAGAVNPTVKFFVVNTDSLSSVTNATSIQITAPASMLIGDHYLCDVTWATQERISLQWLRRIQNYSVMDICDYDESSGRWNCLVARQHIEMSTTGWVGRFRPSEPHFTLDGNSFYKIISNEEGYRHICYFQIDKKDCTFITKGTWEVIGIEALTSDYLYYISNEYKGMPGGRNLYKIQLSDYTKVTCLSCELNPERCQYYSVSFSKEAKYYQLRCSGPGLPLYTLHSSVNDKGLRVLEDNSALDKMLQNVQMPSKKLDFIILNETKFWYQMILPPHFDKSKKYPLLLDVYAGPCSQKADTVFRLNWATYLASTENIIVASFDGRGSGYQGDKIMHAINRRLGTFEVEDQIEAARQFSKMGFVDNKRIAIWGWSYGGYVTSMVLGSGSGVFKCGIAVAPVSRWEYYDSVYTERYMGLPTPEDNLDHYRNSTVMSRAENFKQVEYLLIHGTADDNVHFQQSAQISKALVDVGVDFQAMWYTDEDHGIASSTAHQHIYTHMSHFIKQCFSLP
Experiment [2] has as its target T1, Dipeptidyl peptidase 4. The experiment in a line: Inhibition of DPP4 upto 3.3 mM.
Target sequence in this assay (P27487 whole entry, looked up): as the sequence (P27487 whole entry) above
For experiment [3], the target named is T1, Dipeptidyl peptidase 4. The experiment in a line: Inhibition of DPP4 at 10 mM.
Target sequence in this assay (P27487 whole entry, looked up): as the sequence (P27487 whole entry) above
Experiment [4] has as its target T1, Dipeptidyl peptidase 4. Description: Inhibition of DPP4 at 30 mM.
Target sequence in this assay (P27487 whole entry, looked up): as the sequence (P27487 whole entry) above
Experiment [5] deals with Dipeptidyl peptidase 4 (Sus scrofa) (UniProt P22411). The experiment in a line: Inhibition of pig DPP4 at 500 uM.
Experiment [6] addresses Dipeptidyl peptidase 4 (Sus scrofa, UniProt P22411). Description: Inhibition of pig DPP4.

The source made the active and inactive calls. The calls are words filed in the database; no cut-off is given here.

Sequence of Dipeptidyl peptidase 4 (Sus scrofa) (P22411 whole entry, looked up): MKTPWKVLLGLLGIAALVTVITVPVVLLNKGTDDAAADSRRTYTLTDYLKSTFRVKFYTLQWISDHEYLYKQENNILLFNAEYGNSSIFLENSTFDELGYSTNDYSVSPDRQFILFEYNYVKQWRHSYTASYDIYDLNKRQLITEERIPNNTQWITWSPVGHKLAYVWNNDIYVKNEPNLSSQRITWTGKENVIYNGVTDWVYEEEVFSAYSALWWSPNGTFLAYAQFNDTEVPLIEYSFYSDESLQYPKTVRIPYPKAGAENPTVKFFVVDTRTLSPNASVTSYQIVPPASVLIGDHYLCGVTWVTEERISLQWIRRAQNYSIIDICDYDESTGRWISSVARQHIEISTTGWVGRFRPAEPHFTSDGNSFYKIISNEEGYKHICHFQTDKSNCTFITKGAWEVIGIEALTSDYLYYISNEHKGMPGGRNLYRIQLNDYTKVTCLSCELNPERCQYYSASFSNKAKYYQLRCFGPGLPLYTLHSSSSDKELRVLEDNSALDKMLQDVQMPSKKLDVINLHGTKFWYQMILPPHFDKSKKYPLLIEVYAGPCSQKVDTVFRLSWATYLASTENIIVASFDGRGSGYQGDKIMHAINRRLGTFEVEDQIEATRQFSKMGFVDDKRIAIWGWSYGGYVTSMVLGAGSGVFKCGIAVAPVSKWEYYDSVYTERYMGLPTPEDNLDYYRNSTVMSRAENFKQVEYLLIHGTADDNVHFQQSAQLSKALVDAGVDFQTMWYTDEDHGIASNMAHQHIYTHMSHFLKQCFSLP
Sequence of Dipeptidyl peptidase 4 (Sus scrofa, UniProt P22411) (P22411 whole entry): as the sequence (P22411 whole entry, looked up) above

Compound `CN(C)C(=N)N=C(N)N` [METFORMIN] gave an IC50 against Dipeptidyl peptidase 4 [1] of 29 µM.

As for `CN(C)C(=N)NC(=N)N`, the outcome at Dipeptidyl peptidase 4 [2] was inactive. The inhibition was found to be 12.7% against Dipeptidyl peptidase 4 [3] and 21.9% against Dipeptidyl peptidase 4 [4].

`CC(C)c1c(C(=O)Nc2ccccc2)c(-c2ccccc2)c(-c2ccc(F)cc2)n1CC[C@@H](O)C[C@@H](O)CC(=O)O` [ATORVASTATIN] showed an inhibition in experiment [5] of 66%. The compound further displayed an IC50 against Dipeptidyl peptidase 4 [6] of 175 µM.

`CC(C)n1c(/C=C/[C@@H](O)C[C@@H](O)CC(=O)O)c(-c2ccc(F)cc2)c2ccccc21`: in experiment [5], the inhibition is 8%.

`CC(C)c1nc(N(C)S(C)(=O)=O)nc(-c2ccc(F)cc2)c1/C=C/[C@@H](O)C[C@@H](O)CC(=O)O` showed an inhibition in experiment [5] of 4%.
